# Results: US6800750B1, “Mc1-1 gene regulatory elements and a pro-apoptotic mc1-1 variant” (Dartmouth College, priority 1999, dated 2004)
# Read-outs that look alike come from different tables or passages of the source.
# Assays:
# [1] = system: human Mcl-1 5′-flanking sequence; assay: Transient luciferase expression assay of Mcl-1 reporter plasmids in K-562 cells; format: cell-based
# Excerpt: A 1.7 kilobase (kb) XbaI/XmaI human Mcl-1 genomic fragment representing nucleotide residues −1656 to +160, where +1 denotes the major transcriptional start site, along with a 14 base pair (bp) adapter ligated to its 3′ end to place the luciferase gene in the correct reading frame, was inserted into NheI and HindIII digested pGL2-Basic luciferase reporter vector (Promega; Madison Wis.), yielding p(−1656)Mcl-1luc.
# A series of 5′-deleted plasmids were constructed by double digestion of p(−1656)Mcl-1luc with SmaI, which cuts just upstream of the Mcl-1 insert, and restriction enzymes known to cut at unique sites within the Mcl-1 insert. […] Additional plasmids were constructed using PCR, including p(−107)Mcl-1luc, p(−51)Mcl-1luc, and p(+11)Mcl-1luc; the PCR products were sequenced to confirm their identity.
# Specific mutations were introduced into the p(−162)Mcl-1luc plasmid using a two stage PCR method of Chen and Boxer (supra, 1995). The Ets site at nucleotides −129 to −121 was converted from CCGGAAGC (SEQ ID NO: 4) to CCTTAAGC (SEQ ID NO: 5;ΔEts); the Sp1 site at nucleotides −118 to −113 was converted from CCGCCC (SEQ ID NO: 6) to CTGACC (SEQ ID NO: 7;ΔSp1); and the SRE at nucleotides −106 to −97 was converted from CCTTTTATGG (SEQ ID NO:8) to CCTTCGGCTG (SEQ ID NO: 9;ΔSRE); altered nucleotides are indicated in bold type. All mutations were verified by sequencing. The PCR products containing the desired mutations were digested with BstEII and EcoRI, and ligated into the p(−162)Mcl-1luc plasmid, which had been digested with the same enzymes.
# Electroporation was carried out with K-562 cells using the following protocol, which was based on preliminary experiments aimed at optimizing luciferase activity. Cells were washed twice and resuspended in PBS (5×10^6 cells in 0.5 ml) in the presence of 10 μg luciferase reporter plasmid, along with the pCMVhGH internal control plasmid used in most experiments (10 μg). After incubation on ice for 10 min, cells were electroporated (960 μF and 280 V; Bio-Rad Gene Pulser; Hercules Calif.), placed on ice for 15 min, then incubated at 37° C. (1×10^5 cells/ml) in Iscove's Modified Dulbecco's medium supplemented with 10% FBS, 100 units/ml penicillin, and 100 μg/ml streptomycin. After 17 hr, the cell suspension was divided into two portions, one of which was left untreated and the other of which was exposed to 1.7×10^−9 M TPA, which increased Mcl-1 expression in K-562 cells in a manner equivalent to that observed with 5×10^−10 TPA in ML-1 cells (Pahl et al., Expt. Hematol. 19:1038-1041 (1991), which is incorporated herein by reference). After 7 hr of exposure to TPA, when induction was at or near a peak level, cells were washed with PBS, then assayed in triplicate for luciferase activity (relative light units; Brasier et al., In “Current Protocols in Molecular Biology (Ausubel et al., eds.; John Wiley & Sons, N.Y. 1995), which is incorporated herein by reference; see pages 9.7.12-9.7.21) using a Microlite ML2250 Microtiter plate luminometer (Dynatech Laboratories; Chantilly Va.).
# In most experiments, a human growth hormone reporter plasmid, pCMVhGH (10 μg), was used as a control for transfection efficiency. pCMVhGH yielded a linear increase in activity upon transfection with 2 to 10 μg plasmid, where activity with 2 μg of plasmid was near the limit of sensitivity of the hGH assay, but activity with 5 to 10 μg was sufficiently above background to be accurately quantified.
# The experimental design, wherein an aliquot of cells electroporated with a test plasmid is divided into two portions, one of which was exposed to TPA and the other of which was not, was selected because CMV-based plasmids are subject to induction by TPA. […] Luciferase activity in both portions of cells was normalized to hGH production (assayed in triplicate in the portion of the sample not exposed to TPA).
# Mcl-1 [2] = settings: cited from earlier work
# Mcl-1 [3] = assay: Endogenous Mcl-1 expression in ML-1 cells exposed to inducers and inhibitors; format: cell-based, human
# ML-1 cells = settings: cited from earlier work
# Erk-1 and Erk-2 = assay: Phosphorylation state of MAP kinase proteins in ML-1 cells; format: cell-based, human
# Hela cells = assay: Transient transfection cell death assay in Hela cells (β-gal marker, morphology scoring); format: cell-based, human
# Method: Two types of expression constructs were prepared for use in transfection into mammalian cells. In one set of constructs, Mcl-1 or the Mcl-1s/ΔTM variant were expressed in the pCR3.1 vector; in the second set of constructs, Mcl-1 was fused to green fluorescent protein (GFP). The Mcl-1 RT-PCR reaction products from the F4/R4 primer pair reactions (SEQ ID NOS: 15 and 17, respectively; cloned in pCR3.1) were digested with KpnI (a KpnI site is present in the F4 primer; SEQ ID NO: 15) and HindIII, as was full length Mcl-1(Mcl-1 clone p3.2 in pBluescriptII SK); Kozopas et al., supra, 1993) and the resulting 5′ region of the cDNA was isolated and ligated into pCR3.1 to yield full length Mcl-1 and Mcl-1s/ΔM. […]
# The pCR3.1-based Mcl-1 clones were transiently transfected into subconfluent monolayers of Hela cells in 12 well plates using SUPERFECT (Qiagen). […] Forty hr after transfection, cells were fixed, stained for β-gal activity, and analyzed microscopically to assess cell morphology. Transfection experiments were performed in a double blind manner and cells were scored either as having a normal, viable morphology (flat, healthy cells) or an abnormal morphology characteristic of dying cells (dense, rounded, detaching cells). All blue staining cells in each dish were counted and the results were expressed as percentages of cells with viable versus dying phenotypes.
molecule,measurement,setting,value
COc1cccc(-c2cc(=O)c3ccccc3o2)c1N [PD 98059],decrease of TPA-induced luciferase activity,"[1]; K-562 cells, 1654 base pair reporter, PD 98059 prior to TPA exposure",78%
same,effect on TPA-induced increase in luciferase activity,"[1]; K-562 cells, FIG. 2C","substantially, but not completely, inhibited"
same,effect on basal luciferase activity,"[1]; K-562 transfected cells, absence of TPA",caused a decline in basal activity
same,basal Mcl-1 expression relative to value in the absence of PD 98059,"Mcl-1 [2]; endogenously expressing cells, 8.5 hr assay period",about 25%
same,induction of endogenous Mcl-1 by TPA in the presence of PD 98059,Mcl-1 [2]; endogenously expressing cells,about 3.5 fold
same,"effect on up-regulation of Mcl-1 expression by TPA, colchicine and vinblastine",Mcl-1 [3]; ML-1 cells,prevented
same,cell death,ML-1 cells; ERK inhibitor applied alone,not accompanied by cell death
same,cell death,ML-1 cells; ERK inhibitor applied in conjunction with TPA,cells died by apoptosis
"CCCCCCCCCCCCCC(=O)O[C@@H]1[C@@H](C)[C@@]2(O)[C@@H](C=C(CO)C[C@]3(O)C(=O)C(C)=C[C@@H]23)[C@@H]2C(C)(C)[C@]12OC(C)=O [TPA, 12-O-tetradecanoylphorbol acetate]",phosphorylation of Erk-1 and Erk-2,Erk-1 and Erk-2,increased phosphorylation
same,increase in reporter gene activity in response to TPA,[1]; 162 bp segment of human Mcl-1 5′-flanking sequence,approximately 10 fold
same,induction of luciferase activity by TPA,"[1]; K-562 cells, Mcl-1-luciferase reporter constructs, test of cell lines",about 10 fold
same,increase in luciferase activity after treatment with TPA,"[1]; K-562 cells, luciferase reporter driven by 1654 base pair segment of Mcl-1 5′ flanking region",approximately 8 fold
same,increase in activity in the presence of TPA over reduced basal value,"[1]; K-562 cells, p(−107)Mcl-1luc and p(−51)Mcl-1luc",approximately 3.5 fold
same,induction by TPA,"[1]; K-562 cells, p(−162)Mcl-1luc site mutation experiment (FIG. 3C)",9 fold
same,increase in luciferase activity in the presence of TPA,"[1]; K-562 cells, p(−1656)Mcl-1luc",about 10 fold
same,fold-induction by TPA,"[1]; K-562 cells, wild-type plasmid, additional experiments",about 11 fold
same,fold-induction by TPA above reduced basal value,"[1]; K-562 cells, ΔSRE/ΔEts plasmid",about 4 fold
same,induction of luciferase activity by TPA,"[1]; p(−162)Mcl-1luc and p(−1663)Mcl-1luc, absence of pCMVhGH",about 13.5 fold
same,induction of luciferase activity by TPA,"[1]; p(−162)Mcl-1luc and p(−1663)Mcl-1luc, presence of pCMVhGH",about 10.5 fold
same,time at which increase in Mcl-1 mRNA is detectable,Mcl-1 [2]; ML-1 cells,≤ 1 h
same,Mcl-1 mRNA level relative to peak value,"Mcl-1 [2]; ML-1 cells, within 1 day",about 50%
same,Mcl-1 level with TPA above low basal level,Mcl-1 [2]; TPA without ERK inhibitor,~10 fold
same,Mcl-1 expression,Mcl-1 [3]; ML-1 cells,induced
COc1cc2c(c(OC)c1OC)-c1ccc(OC)c(=O)cc1[C@@H](NC(C)=O)CC2 [colchicine],Mcl-1 expression,Mcl-1 [3]; ML-1 cells,induced
CC(=O)O[C@H]1C(=O)[C@@]2(C)[C@H]([C@H](OC(=O)c3ccccc3)[C@]3(O)C[C@H](OC(=O)[C@H](O)[C@@H](NC(=O)c4ccccc4)c4ccccc4)C(C)=C1C3(C)C)[C@]1(OC(C)=O)CO[C@@H]1C[C@@H]2O [paclitaxel],effect of pretreatment on increase in Mcl-1 expression produced by TPA,Mcl-1 [3],not
same,effect of pretreatment on increase in Mcl-1 expression produced by colchicine or vinblastine,Mcl-1 [3],blocked
CC[C@]1(O)C[C@@H]2CN(CCc3c([nH]c4ccccc34)[C@@](C(=O)OC)(c3cc4c(cc3OC)N(C)[C@H]3[C@@](O)(C(=O)OC)[C@H](OC(C)=O)[C@]5(CC)C=CCN6CC[C@]43[C@@H]65)C2)C1 [vinblastine],Mcl-1 expression,Mcl-1 [3]; ML-1 cells,induced
"Mcl-1s/ΔTM: 271 amino acid pro-apoptotic Mcl-1 splice variant, SEQ ID NO: 3, exon 1 joined to exon 3 (protein, listed as Homo sapiens) MFGLKRNAVIGLNLYCGGAGLGAGSGGATRPGGRLLATEKEASARREIGGGEAGAVIGGSAGASPPSTLTPDSRRVARPPPIGAEVPDVTATPARLLFFAPTRRAAPLEEMEAPAADAIMSPEEELDGYEPEPLGKRPAVLPLLELVGESGNNTSTDGSLPSTPPPAEEEEDELYRQSLEIISRYLREQATGAKDTKPMGRSGATSRKALETLRRVGDGVQRNHETVFQGWVCGVLPCRGPRRWHQECAAGFCRCCWSRSWFGISNKIALL","killing of cells, quantitated by double blind scoring of blue staining cells",Hela cells,as effective as Bax
